The species named for one experiment is Bos taurus. Kind of experiment: Displacement of [3H]Ro15-1788 from GABAA receptor in bovine cerebral cortex membranes at 10 uM after 90 mins by liquid scintillation counting method relative to control. The format is cell membranes. The conditions noted are these: Membrane. For orientation: Loss of bound radioactivity is the signal in a displacement assay; it reports binding, not function.

Experiment [1] in a line: Displacement of [3H]Ro15-1788 from GABAA receptor in bovine cerebral cortex membranes after 90 mins by liquid scintillation counting method. The format is cell membranes, Bos taurus, Membrane.
For experiment [2], the target named is GABA-A receptor; alpha-1/beta-2/gamma-2 (Rattus norvegicus, UniProt P18508+P62813+P63138). Nature of the experiment: Displacement of [3H]Ro15-1788 from recombinant rat GABAAalpha1/beta2/gamma2 receptor after 90 mins by liquid scintillation counting method. The format is protein-complex assay.
GABA-A receptor; alpha-1/beta-2/gamma-2, sequence (P18508 whole entry): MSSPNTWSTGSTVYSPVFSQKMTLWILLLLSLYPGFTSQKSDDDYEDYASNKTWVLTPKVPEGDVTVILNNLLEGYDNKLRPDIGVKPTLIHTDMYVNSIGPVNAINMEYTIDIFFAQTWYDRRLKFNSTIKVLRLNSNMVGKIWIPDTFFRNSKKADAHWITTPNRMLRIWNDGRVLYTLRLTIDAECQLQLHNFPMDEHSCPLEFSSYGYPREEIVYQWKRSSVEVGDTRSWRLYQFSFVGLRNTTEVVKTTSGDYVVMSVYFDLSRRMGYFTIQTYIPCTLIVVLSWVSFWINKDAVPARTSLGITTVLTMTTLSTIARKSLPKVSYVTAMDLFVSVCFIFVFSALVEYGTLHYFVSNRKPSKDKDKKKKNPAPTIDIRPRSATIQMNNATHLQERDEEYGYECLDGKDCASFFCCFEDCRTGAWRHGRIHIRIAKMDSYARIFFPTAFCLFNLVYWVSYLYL
GABA-A receptor; alpha-1/beta-2/gamma-2, sequence (P62813 whole entry): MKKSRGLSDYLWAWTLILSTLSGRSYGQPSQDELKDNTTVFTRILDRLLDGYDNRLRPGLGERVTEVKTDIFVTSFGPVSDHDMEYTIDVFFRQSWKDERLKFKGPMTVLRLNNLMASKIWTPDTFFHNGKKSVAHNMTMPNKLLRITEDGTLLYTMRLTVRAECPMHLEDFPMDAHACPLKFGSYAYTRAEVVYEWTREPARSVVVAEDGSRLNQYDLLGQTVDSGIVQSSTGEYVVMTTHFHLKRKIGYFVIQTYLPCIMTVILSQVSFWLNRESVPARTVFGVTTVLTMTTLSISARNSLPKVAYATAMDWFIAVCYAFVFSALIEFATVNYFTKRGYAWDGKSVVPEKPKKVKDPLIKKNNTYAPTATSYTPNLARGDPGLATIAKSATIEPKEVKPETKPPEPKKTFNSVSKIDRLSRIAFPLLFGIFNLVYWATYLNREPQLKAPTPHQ
GABA-A receptor; alpha-1/beta-2/gamma-2, sequence (P63138 whole entry): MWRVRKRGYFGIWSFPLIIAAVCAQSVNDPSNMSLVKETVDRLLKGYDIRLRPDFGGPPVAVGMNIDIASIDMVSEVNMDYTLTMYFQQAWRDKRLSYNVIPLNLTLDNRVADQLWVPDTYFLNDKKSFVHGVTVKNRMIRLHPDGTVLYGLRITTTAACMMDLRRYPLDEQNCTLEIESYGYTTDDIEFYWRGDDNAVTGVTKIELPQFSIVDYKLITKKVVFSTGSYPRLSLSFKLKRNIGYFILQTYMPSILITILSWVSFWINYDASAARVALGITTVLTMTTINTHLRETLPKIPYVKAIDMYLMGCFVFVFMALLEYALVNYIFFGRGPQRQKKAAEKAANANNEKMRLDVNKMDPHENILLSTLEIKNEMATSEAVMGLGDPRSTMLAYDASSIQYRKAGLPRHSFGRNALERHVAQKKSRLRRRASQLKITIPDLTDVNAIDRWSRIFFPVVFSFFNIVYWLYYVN
Experiment [3] is described as follows: Displacement of [3H]Ro15-1788 from recombinant rat GABAAalpha3/beta2/gamma2 receptor after 90 mins by liquid scintillation counting method.
In experiment [4] the target is GABA A receptor alpha-5/beta-3/gamma-2 (Rattus norvegicus, UniProt P18508+P19969+P63079). Nature of the experiment: Displacement of [3H]Ro15-1788 from recombinant rat GABAAalpha5/beta3/gamma2 receptor after 90 mins by liquid scintillation counting method. The format is protein-complex assay.
GABA A receptor alpha-5/beta-3/gamma-2, sequence (P18508 whole entry): as the sequence (P18508 whole entry) above
GABA A receptor alpha-5/beta-3/gamma-2, sequence (P19969 whole entry): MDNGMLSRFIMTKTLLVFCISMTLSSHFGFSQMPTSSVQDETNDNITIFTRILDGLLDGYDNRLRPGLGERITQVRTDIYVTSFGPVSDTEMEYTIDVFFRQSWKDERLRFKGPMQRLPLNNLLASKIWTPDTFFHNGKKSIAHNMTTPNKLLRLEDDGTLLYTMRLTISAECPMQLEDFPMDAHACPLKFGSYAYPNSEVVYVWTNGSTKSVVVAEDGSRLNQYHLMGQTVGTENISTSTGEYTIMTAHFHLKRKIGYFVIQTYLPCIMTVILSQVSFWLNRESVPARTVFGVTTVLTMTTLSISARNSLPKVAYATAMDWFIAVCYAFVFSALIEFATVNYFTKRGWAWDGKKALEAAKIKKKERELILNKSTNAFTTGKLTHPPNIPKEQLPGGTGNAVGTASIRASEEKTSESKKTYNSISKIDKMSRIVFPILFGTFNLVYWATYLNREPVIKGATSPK
GABA A receptor alpha-5/beta-3/gamma-2, sequence (P63079 whole entry): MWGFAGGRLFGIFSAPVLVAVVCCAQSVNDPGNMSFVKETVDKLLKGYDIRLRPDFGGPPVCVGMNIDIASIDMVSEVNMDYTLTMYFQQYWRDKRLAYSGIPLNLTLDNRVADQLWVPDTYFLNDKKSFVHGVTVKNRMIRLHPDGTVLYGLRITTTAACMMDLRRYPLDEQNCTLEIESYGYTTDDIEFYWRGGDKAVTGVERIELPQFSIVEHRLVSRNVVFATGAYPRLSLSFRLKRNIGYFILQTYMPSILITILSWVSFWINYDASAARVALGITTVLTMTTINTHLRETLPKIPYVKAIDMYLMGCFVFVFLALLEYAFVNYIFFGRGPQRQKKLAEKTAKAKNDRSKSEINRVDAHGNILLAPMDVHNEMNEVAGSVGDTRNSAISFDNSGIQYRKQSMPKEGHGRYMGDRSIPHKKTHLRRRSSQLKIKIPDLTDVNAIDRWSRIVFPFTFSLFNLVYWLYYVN
For experiment [5], the species on record is Rattus norvegicus. Kind of experiment: Displacement of [3H]Ro15-1788 from recombinant rat GABAAalpha2/beta2/gamma2 receptor at 10 uM after 90 mins by liquid scintillation counting method relative to control.
For experiment [6], the species on record is Rattus norvegicus. Nature of the experiment: Displacement of [3H]Ro15-1788 from recombinant rat GABAAalpha3/beta2/gamma2 receptor at 10 uM after 90 mins by liquid scintillation counting method relative to control.
For experiment [7], the species on record is Rattus norvegicus. Kind of experiment: Selectivity ratio of Ki for recombinant rat GABAAalpha1/beta2/gamma2 receptor to Ki for recombinant rat GABAAalpha2/beta2/gamma2 receptor.
Experiment [8] in a line: Displacement of [3H]Ro15-1788 from recombinant rat GABAAalpha2/beta2/gamma2 receptor after 90 mins by liquid scintillation counting method.
The species named for experiment [9] is Rattus norvegicus. Nature of the experiment: Selectivity ratio of Ki for recombinant rat GABAAalpha5/beta3/gamma2 receptor to Ki for recombinant rat GABAAalpha2/beta2/gamma2 receptor.
In experiment [10] the target is GABA A receptor alpha-5/beta-3/gamma-2 (Rattus norvegicus) (UniProt P18508+P19969+P63079). Kind of experiment: Displacement of [3H]Ro15-1788 from recombinant rat GABAAalpha5/beta3/gamma2 receptor at 10 uM after 90 mins by liquid scintillation counting method relative to control. The format is protein-complex assay.

pKi: −log10 of the molar value. Where only a bound is given, the exact number is not on record here.

As to `Cc1ccc(-c2cnn3c(=O)c(-c4cc[nH]n4)n[nH]c23)cc1`, in the experiment filed under Bos taurus, the inhibition was 32%.

Turning to `O=c1c(-c2cc[nH]n2)n[nH]c2c(-c3cccc(Br)c3)cnn12`, the pKi in [1] was 7.42; in [2], 7.68; in [3], 6.24; in experiment [4], 5.95. Also, the inhibition in the experiment filed under Rattus norvegicus [5] was determined as 50%.

As for `O=c1c(-c2cc[nH]n2)n[nH]c2c(-c3cccs3)cnn12`, in the experiment listed under Rattus norvegicus [6], the inhibition is 28%. The results for the Ratio Ki in the experiment filed under Rattus norvegicus [7] and in the experiment filed under Rattus norvegicus [9] were 7 and 16, respectively. For the same molecule, the negative-log Ki (pKi) in experiment [8] is 7.39; in [1], 6.63; in experiment [2], 6.55; in experiment [4] it was 6.18.

Take `O=c1c(-c2cc[nH]n2)c[nH]c2c(-c3cccs3)cnn12`: the pKi in experiment [1] was 6.27.

For the molecule `O=c1c(-c2cc[nH]n2)n[nH]c2c(-c3cccnc3)cnn12`, the pKi in experiment [8] is 5.30; in experiment [1], 7.13; in experiment [2], 7.29; in experiment [3] it was 6.30; in experiment [4], 5.91.

`O=c1c(-c2cc[nH]n2)n[nH]c2c(-c3cccc4ccccc34)cnn12`: the results for the pKi in experiment [1], in experiment [2] and in [4] were 7.11, 6.82 and 6.80, respectively.

Turning to `COc1ccc(-c2cnn3c(=O)c(-c4cc[nH]n4)n[nH]c23)cc1`, the pKi in experiment [1] was 5.79.

`O=c1c(-n2ccnc2)c[nH]c2c(-c3ccccc3)cnn12` had an inhibition in the experiment listed under Bos taurus of 2%.

Regarding `O=c1c(-c2cc[nH]n2)n[nH]c2c(-c3cccc(C(F)(F)F)c3)cnn12`, the negative-log Ki (pKi) in experiment [8] was less than 5.30; in [1] it was 8.14; in experiment [2], 8.19; in experiment [3], 6.30; in [4], 6.84.

Regarding `O=c1c(-c2cc[nH]n2)c[nH]c2c(-c3ccccn3)cnn12`, the pKi in experiment [1] was 7.85.

`O=c1c(-c2cc[nH]n2)c[nH]c2c(-c3cccc(Cl)c3)cnn12` gave a negative logarithm of the Ki (pKi) in experiment [1] of 7.02.

Take `O=c1c(-c2cc[nH]n2)n[nH]c2c(-c3ccccn3)cnn12`: the pKi is 7.92 in [8], 7.98 in [1] and 8.04 in [2]. Besides, the inhibition in experiment [10] was found to be 32%.

On to `O=c1c(-c2cc[nH]n2)c[nH]c2c(-c3cccnc3)cnn12`, for which the pKi in experiment [1] is 7.43.

In turn, `O=c1c(-c2cc[nH]n2)c[nH]c2c(Cc3ccccc3)cnn12` had a negative logarithm of the Ki (pKi) in experiment [1] of 6.07.

For the molecule `O=c1c(-c2cc[nH]n2)n[nH]c2c(-c3ccccc3)cnn12`, the pKi in experiment [8] is 5.52; in experiment [1] it was 6.48; in experiment [2] it was 6.38; in experiment [3], 5.68; in [4], 6.39.

`O=c1c(-c2cc[nH]n2)c[nH]c2c(-c3ccc4ccccc4c3)cnn12` had an inhibition in the experiment listed under Bos taurus of 20%.

Regarding `O=c1c(-n2cccn2)c[nH]c2c(-c3cccs3)cnn12`, in the experiment listed under Bos taurus, the inhibition was found to be 13.9%.

`O=c1c(-c2cc[nH]n2)n[nH]c2c(-c3cccc(F)c3)cnn12`: the pKi is 6.20 in experiment [8], 6.82 in experiment [1], 7.00 in [2] and 5.97 in experiment [3]. Moreover, the inhibition in experiment [10] is 23%.

Regarding `O=c1c(-c2cc[nH]n2)c[nH]c2c(-c3cccc4ccccc34)cnn12`, the pKi in experiment [1] is 6.22.

For the molecule `O=c1c(-c2cc[nH]n2)c[nH]c2c(-n3cccc3)cnn12`, in experiment [1], the pKi was 5.57.

In turn, `O=c1c(-c2cc[nH]n2)c[nH]c2c(-c3ccccc3)cnn12` had a pKi in experiment [1] of 6.49.

Regarding `O=c1c(-c2cc[nH]n2)n[nH]c2c(-c3cccc(Cl)c3)cnn12`, the pKi in experiment [8] is 6.00; in [1] it was 7.13; in experiment [2] it was 7.18; in [3], 6.18. Also, the inhibition in experiment [10] is 40%.

Turning to `O=c1c(-c2cc[nH]n2)n[nH]c2c(-c3ccc4ccccc4c3)cnn12`, in [1], the negative logarithm of the Ki (pKi) was 5.64.

With `O=c1c(-c2cc[nH]n2)n[nH]c2c(-c3ccc(F)cc3)cnn12`, the pKi was 5.62 in experiment [8]; 7.05 in experiment [1]; 7.11 in [2]; 6.05 in experiment [3]; 5.95 in [4].

In turn, `O=c1c(-n2ccnc2)c[nH]c2c(-c3cccs3)cnn12` displayed an inhibition in the experiment listed under Bos taurus of 14.7%.

With `O=c1c(-n2cccn2)c[nH]c2c(-c3ccccc3)cnn12`, the inhibition in the experiment listed under Bos taurus stood at 59.5%.

What is called inhibition is the relative decrease from the control value, in per cent. Broadly, the pKi is −log10 of the Ki, conventionally taken in molar units.
